Values of other authors in patent US6458389B1 (priority 1997, dated 2002).
Read-outs that look alike come from different tables or passages of the source.

How the values were obtained:
mice = mice treated orally, toxic dose of 70 mg/kg
rats = conditions: rat, in vivo, iv

In the case of N.N.[Cl][Pt][Cl] [cisplatin], the “Electron microscope analysis of tissues (kidneys)” value (48 hours after oral administration) is given as “only slight changes in the kidneys”, the “Electron microscope analysis of tissues (kidneys)” value (intravenous administration) is given as “symptoms of nephrotoxicity are observable” and the “Histopathological change in the kidneys” value (mice) is given as “No histopathological change in the kidneys”. The “Urea concentrations in the blood, multiplication factor” value (rats) was 14.
